Measurements as given in BindingDB's records for doi:10.1016/j.bmc.2013.04.067 (Chinese Academy of Sciences, 2013).

Assay: Inhibition of p-gp in human KB/VCR cells assessed as potentiation of 100 nM docetaxel-induced cytotoxicity after 72 hrs by MTT assay

Structure (SMILES)	EC50
CC1(C)[C@@H](O)CC[C@]2(C)[C@H]3C[C@@H](O)[C@@H]4[C@@H]([C@@](C)(O)CCCNCc5ccccc5)CC[C@@]4(C)[C@]3(C)CC[C@@H]12	1370 nM
CC1(C)[C@@H](O)CC[C@]2(C)[C@H]3C[C@@H](O)[C@@H]4[C@@H]([C@@](C)(O)CCCNCCc5ccccc5)CC[C@@]4(C)[C@]3(C)CC[C@@H]12	1310 nM
